In patent US10807959B2, “WDR5-MLL1 inhibitors and modulators” (Vanderbilt University, priority 2018, dated 2020):
Read-outs that look alike come from different tables or passages of the source.

How the values were obtained:
WDR5 = WDR5 (Homo sapiens (Human), UniProt P61964); assay: TR-FRET binding assay, displacement of 10mer-Thr-FAM probe from His-tagged WDR5
Protocol: The LanthaScreenTM Elite Tb-anti-HIS Antibody from ThermoFisher Scientific was used for this purpose. […] The ratio of the 520 and 495 signals are then utilized to generate a dose-response curve to calculate an IC50 value. […] WDR[…] tag protein is used at 2 nM.

MV4:11 cells = assay: Cellular viability / anti-proliferative activity, CellTiter-Glo, 7 day protocol; assay type: cell-based, human; details: 168 h
Protocol: Anti proliferative activity using MLL-harboring cell lines. MV4:11 cells are grown in RPMI-1640 media supplemented with 10% FBS and 1% penicillin/streptomycin. Viability assays are performed by dispensing […] into each well of an opaque 384-well plate and adding compounds at the indicated concentrations in a final volume of 32 μL and a final concentration of DMSO of 0.1% for all samples. After a set incubation period, 7 day protocol, the viability of cells in each well is assessed using the CellTiter-Glo assay (Promega), read on a GloMax 96 Microplane Luminometer (Promega). Serial dilutions of each cell type are included in all assays to generate standard curves and determine assay measurements are taken within the dynamic range of the instrument. GI50 values are calculated based on three biological replicates, each with three technical replicates. Data are expressed as mean plus/minus S.E.M.

[1] = Inhibition of WDR5 by TR-FRET assay
[2] = cellular proliferation of MV4:11 human cancer cell lines, 7 day
[3] = Homo sapiens, MV4:11 leukemia cells after a 7 day incubation period

Row | Compound | Ki (WDR5; [1]) [nM] | GI50 (MV4:11 cells; [2]) [nM] | Ki (WDR5) [nM] | GI50 (MV4:11 cells; [3]) [nM]
1 | COc1cc(CNC(=O)c2cc(CNC3=NCCC3)cc(-c3ccc(F)cc3C)c2NC(C)=O)cc(OC)c1 [Example 172, 2-Acetamido-5-(((3,4-dihydro-2H-pyrrol-5-yl)amino)methyl)-N-(3,5-dimethoxybenzyl)-4′-fluoro-2′-methyl-[1,1′-biphenyl]-3-carboxamide] | 2.1 | 240 | – | –
2 | COc1cc(CNC(=O)c2cc(CNC3=NCCC3)cc(-c3ccc(F)nc3C)c2)cc(OC)c1 [Example 60, 3-(((3,4-Dihydro-2H-pyrrol-5-yl)amino)methyl)-N-(3,5-dimethoxybenzyl)-5-(6-fluoro-2-methylpyridin-3-yl)benzamide] | 0.55 | 360 | – | –
3 | CCn1cc(-c2cc(CNC(=N)C3CC3)cc(C(=O)N[C@H](c3ccc(F)c(C)c3)C3CC3)c2)c(C(F)(F)F)n1 [Example 105, (S)-3-(Cyclopropanecarboximidamidomethyl)-N-(cyclopropyl(4-fluoro-3-methylphenyl)methyl)-5-(1-ethyl-3-(trifluoromethyl)-1H-pyrazol-4-yl)benzamide] | < 0.1 | 10 | – | –
4 | CNc1c(C(=O)N(C)Cc2cc(OC)cc(OC)c2)cc(CNC2=NCCN2)cc1-c1ccc(F)cc1C [Example 171, 5-(((4,5-Dihydro-1H-imidazol-2-yl)amino)methyl)-N-(3,5-dimethoxybenzyl)-4′-fluoro-N,2′-dimethyl-2-(methylamino)-[1,1′-biphenyl]-3-carboxamide] | 19 | 3800 | – | –
5 | COc1ccnc(CNC(=O)c2cc(CNC3=NCCN3)cc(-c3ccc(F)cc3C)c2)c1 [Example B114] | – | – | 0.228 | 701
6 | COc1cc(F)ccc1-c1cc(CNC2=NCCC2)cc(C(=O)NCc2ccc(Cl)c(C)c2)c1 [Example 70, N-(4-chloro-3-methylbenzyl)-5-(((3,4-dihydro-2H-pyrrol-5-yl)amino)methyl)-4′-fluoro-2′-methoxy-[1,1′-biphenyl]-3-carboxamide] | 0.5 | 460 | – | –
7 | COc1cc(OC)cc(C(C)NC(=O)c2cc(Cn3ccnc3C)cc(-c3ccc(F)nc3C)n2)c1 (centres unmarked) [Example 159, N-(1-(3,5-Dimethoxyphenyl)ethyl)-6′-fluoro-2′-methyl-4-((2-methyl-1H-imidazol-1-yl)methyl)-[2,3′-bipyridine]-6-carboxamide] | 3.9 | 1200 | – | –
8 | Cc1cc(CNC(=O)c2cc(CNC3=NCCC3)cc(-c3cccc(CO)c3)c2)ccc1Cl [Example 63, N-(4-Chloro-3-methylbenzyl)-5-(((3,4-dihydro-2H-pyrrol-5-yl)amino)methyl)-3′-(hydroxymethyl)-[1,1′-biphenyl]-3-carboxamide] | 0.88 | 1900 | – | –
9 | COc1cc(CN(C)C(=O)c2cc(CNC3=NCCC3)cc(-c3ccc(F)nc3C)c2)cc(OC)c1 [Example 56, 3-(((3,4-Dihydro-2H-pyrrol-5-yl)amino)methyl)-N-(3,5-dimethoxybenzyl)-5-(6-fluoro-2-methylpyridin-3-yl)-N-methylbenzamide] | 20 | 6400 | – | –
10 | COc1ccnc(CNC(=O)c2cc(CNC3=NCCC3)cc(-c3ccc(F)nc3C)c2)c1 [Example 53, 3-(((3,4-Dihydro-2H-pyrrol-5-yl)amino)methyl)-5-(6-fluoro-2-methylpyridin-3-yl)-N-((4-methoxypyridin-2-yl)methyl)benzamide] | 0.53 | 630 | – | –
11 | CCn1cc(-c2cc(CNC(=N)C3CCC3)cc(C(=O)N[C@H](c3ccc(F)c(C)c3)C3CC3)c2)c(C(F)(F)F)n1 [Example 106, (S)-3-(Cyclobutanecarboximidamidomethyl)-N-(cyclopropyl(4-fluoro-3-methylphenyl)methyl)-5-(1-ethyl-3-(trifluoromethyl)-1H-pyrazol-4-yl)benzamide] | < 0.1 | 30 | – | –
12 | COc1cc(CNC(=O)c2cc(CNC3=NCCN3)cc(-c3ccc(F)cc3C)c2N)cc(OC)c1 [Example 169, 2-Amino-5-(((4,5-dihydro-1H-imidazol-2-yl)amino)methyl)-N-(3,5-dimethoxybenzyl)-4′-fluoro-2′-methyl-[1,1′-biphenyl]-3-carboxamide] | 6.1 | 14000 | – | –
13 | Cc1cc(CNC(=O)c2cc(CNC3=NCCN3)cc(-c3ccc(F)nc3C)n2)ccc1Cl [Example 74, N-(4-Chloro-3-methylbenzyl)-4-(((4,5-dihydro-1H-imidazol-2-yl)amino)methyl)-6′-fluoro-2′-methyl-[2,3′-bipyridine]-6-carboxamide] | 0.46 | 680 | – | –
14 | Cc1cc(C(C)NC(=O)c2cc(CNC3=NCCC3)cc(-c3ccc(F)nc3C)c2)ncc1Cl (centres unmarked) [Example 54, N-(1-(5-Chloro-4-methylpyridin-2-yl)ethyl)-3-(((3,4-dihydro-2H-pyrrol-5-yl)amino)methyl)-5-(6-fluoro-2-methylpyridin-3-yl)benzamide] | 0.31 | 180 | – | –
15 | Cc1cc(CNC(=O)c2cc(CNC3=NCCC3)cc(-c3ccc(F)nc3C)c2)ccc1Cl [Example B129] | – | – | 0.089 | 109
16 | Cc1cc(-c2cc(CNC3=NCCN3)cc(C(=O)NCc3ccc(Cl)c(C)c3)c2)cc(C)n1 [Example 41, N-(4-chloro-3-methylbenzyl)-3-(((4,5-dihydro-1H-imidazol-2-yl)amino)methyl)-5-(2,6-dimethylpyridin-4-yl)benzamide] | < 0.1 | 170 | – | –
17 | COc1cc(CNC(=O)c2cc(CNC3=NCCC3)cc(-c3ccnc(C)c3)c2)cc(OC)c1 [Example 57, 3-(((3,4-Dihydro-2H-pyrrol-5-yl)amino)methyl)-N-(3,5-dimethoxybenzyl)-5-(2-methylpyridin-4-yl)benzamide] | 3 | 2800 | – | –
18 | COc1cc(CNC(=O)c2cc(CNC3=NCCC3)cc(-c3ccc(F)cc3C)c2)cc(OC)c1 [Example 59, 5-(((3,4-Dihydro-2H-pyrrol-5-yl)amino)methyl)-N-(3,5-dimethoxybenzyl)-4′-fluoro-2′-methyl-[1,1′-biphenyl]-3-carboxamide] | 0.74 | 790 | – | –
19 | COc1cc(CNC(=O)c2cc(CNC3=NCCC3)cc(-c3ccc(F)cc3C)c2N)cc(OC)c1 [Example 168, 2-Amino-5-(((3,4-dihydro-2H-pyrrol-5-yl)amino)methyl)-N-(3,5-dimethoxybenzyl)-4′-fluoro-2′-methyl-[1,1′-biphenyl]-3-carboxamide] | 5.2 | 4800 | – | –
20 | Cc1cc(CNC(=O)c2cc(CNC3=NCCC3)cc(-c3cccnc3C(F)(F)F)c2)ccc1Cl [Example 67, N-(4-Chloro-3-methylbenzyl)-3-(((3,4-dihydro-2H-pyrrol-5-yl)amino)methyl)-5-(2-(trifluoromethyl)pyridin-3-yl)benzamide] | < 0.1 | 50 | – | –
21 | COc1cc(CNC(=O)c2cc(CNC3=NCCC3)nc(-c3ccc(F)cc3C(F)(F)F)c2)cc(OC)c1 [Example 91, 2-(((3,4-dihydro-2H-pyrrol-5-yl)amino)methyl)-N-(3,5-dimethoxybenzyl)-6-(4-fluoro-2-(trifluoromethyl)phenyl)isonicotinamide] | 1.6 | 460 | – | –
22 | COc1cc(OC)cc(C(C)NC(=O)c2cc(CNC3=NCCC3)cc(-c3ccc(F)nc3C)c2)c1 (centres unmarked) [Example 55, 3-(((3,4-Dihydro-2H-pyrrol-5-yl)amino)methyl)-N-(1-(3,5-dimethoxyphenyl)ethyl)-5-(6-fluoro-2-methylpyridin-3-yl)benzamide] | 11 | 440 | – | –
23 | Cc1cc(CNC(=O)c2cc(CNC3=NCCN3)cc(-c3cnccc3C)c2)ccc1Cl [Example B88] | – | – | 0.115 | 536
24 | COc1cc(CNC(=O)c2cc(CNC3=NCCN3)cc(-c3ccc(F)cc3C)c2NC(C)=O)cc(OC)c1 [Example 173, 2-Acetamido-5-(((4,5-dihydro-1H-imidazol-2-yl)amino)methyl)-N-(3,5-dimethoxybenzyl)-4′-fluoro-2′-methyl-[1,1′-biphenyl]-3-carboxamide] | 7.2 | 530 | – | –
25 | CNc1c(C(=O)N(C)Cc2cc(OC)cc(OC)c2)cc(CNC2=NCCC2)cc1-c1ccc(F)cc1C [Example 170, 5-(((3,4-dihydro-2H-pyrrol-5-yl)amino)methyl)-N-(3,5-dimethoxybenzyl)-4′-fluoro-N,2′-dimethyl-2-(methylamino)-[1,1′-biphenyl]-3-carboxamide] | 19 | 4700 | – | –
26 | Cc1cc(CNC(=O)c2cc(CNC3=NCCC3)cc(-c3ccc(F)cc3C(F)(F)F)c2)ccc1Cl [Example 68, N-(4-chloro-3-methylbenzyl)-5-(((3,4-dihydro-2H-pyrrol-5-yl)amino)methyl)-4′-fluoro-2′-(trifluoromethyl)-[1,1′-biphenyl]-3-carboxamide] | 0.3 | 160 | – | –
27 | Cc1cc(CNC(=O)c2cc(CNC3=NC(=O)CN3C)cc(-c3ccc(F)nc3C)c2)ccc1Cl [Example 71, N-(4-Chloro-3-methylbenzyl)-3-(6-fluoro-2-methylpyridin-3-yl)-5-(((1-methyl-4-oxo-4,5-dihydro-1H-imidazol-2-yl)amino)methyl)benzamide] | 6.6 | 5000 | – | –
28 | Cc1ccnc(C(NC(=O)c2cc(CNC3=NCCC3)cc(-c3ccc(F)cc3C(F)(F)F)n2)C2CC2)c1 (centres unmarked) [Example 90, N-(Cyclopropyl(4-methylpyridin-2-yl)methyl)-4-(((3,4-dihydro-2H-pyrrol-5-yl)amino)methyl)-6-(4-fluoro-2-(trifluoromethyl)phenyl)picolinamide] | 1.2 | 750 | – | –
